In patent publication US12016852B2, “Pyrrolidine glycosidase inhibitors” (Asceneuron SA, priority 2018, dated 2024):
pIC50: −log10 of the molar value.

target: T1, Human O-GlcNAcase (His-Tagged hOGA) (Homo sapiens, UniProt O60502); assay: Human O-GlcNAcase enzyme inhibition assay; format: biochemical; details: 20 nM His-Tagged hOGA, 10 μM FL-GlcNAc, McIlvaine's Buffer pH 6.5, 60 min at room temperature, fluorescence; read-out: OGA IC50
T1 sequence (O60502 1-916): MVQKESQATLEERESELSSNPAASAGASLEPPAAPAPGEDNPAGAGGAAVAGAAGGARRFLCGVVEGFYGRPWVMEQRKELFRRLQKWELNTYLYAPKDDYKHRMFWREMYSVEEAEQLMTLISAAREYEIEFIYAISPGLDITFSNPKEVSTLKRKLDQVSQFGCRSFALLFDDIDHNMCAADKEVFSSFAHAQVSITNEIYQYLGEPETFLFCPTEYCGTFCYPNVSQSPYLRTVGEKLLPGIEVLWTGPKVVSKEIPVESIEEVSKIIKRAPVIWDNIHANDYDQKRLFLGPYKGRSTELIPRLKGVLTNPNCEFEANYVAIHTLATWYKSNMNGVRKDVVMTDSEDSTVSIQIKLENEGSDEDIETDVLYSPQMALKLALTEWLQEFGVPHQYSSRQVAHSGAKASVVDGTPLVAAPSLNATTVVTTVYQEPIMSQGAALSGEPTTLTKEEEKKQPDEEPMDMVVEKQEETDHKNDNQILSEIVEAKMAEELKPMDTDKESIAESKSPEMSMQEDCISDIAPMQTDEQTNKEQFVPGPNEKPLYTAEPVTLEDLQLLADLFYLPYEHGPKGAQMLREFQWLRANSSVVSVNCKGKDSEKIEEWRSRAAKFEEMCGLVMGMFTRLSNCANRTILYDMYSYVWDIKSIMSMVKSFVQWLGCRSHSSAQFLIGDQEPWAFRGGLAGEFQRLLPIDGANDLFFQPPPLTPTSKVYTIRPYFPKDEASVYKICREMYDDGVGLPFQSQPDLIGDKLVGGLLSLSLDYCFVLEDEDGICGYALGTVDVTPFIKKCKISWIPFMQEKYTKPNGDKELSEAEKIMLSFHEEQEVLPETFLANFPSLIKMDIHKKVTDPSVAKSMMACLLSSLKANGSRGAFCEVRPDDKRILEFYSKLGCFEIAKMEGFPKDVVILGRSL
Protocol: Example B01: Human O-GlcNAcase Enzyme Inhibition Assay
5 μl of the appropriate concentration of a solution of inhibitor in Mcllvaine's Buffer (pH 6.5) in 2% DMSO (for a dose response curve calculation) is added into each well of a 384-well plate (Greiner, 781900). Then, 20 nM of His-Tagged hOGA and 10 μM of FL-GlcNAc (Fluorescein mono-beta-D-(2-deoxy-2-N-acetyl) glucopyranoside; Marker Gene Technologies Inc, M1485) were added to the 384-well plate for a final volume of 20 μl. After incubation for 60 min at room temperature, the reaction was terminated by the addition of 10 μL of stop buffer (200 mM glycine, pH 10.75). The level of fluorescence (λexc 485 nm; (λemm 520 nm) was read on a PHERAstar machine. The amount of fluorescence measured was plotted against the concentration of inhibitor to produce a sigmoidal dose response curve to calculate an IC50. All individual data was corrected by subtraction of the background (Thiamet 3 uM=100% inhibition) whilst 0.5% DMSO was considered as the control value (no inhibition).

Structure (SMILES)	pIC50
Cn1cc(-c2ccc(CN3CCCC3c3ccc4c(c3)OCCO4)cc2)cn1 (racemic) [Example 4, 4-(4-((2-(2,3-dihydrobenzo[b] [1,4]dioxin-6-yl)pyrrolidin-1-yl)methyl)phenyl)-1-methyl-1H-pyrazole]	6.70 to 7.30
Cn1cc(-c2ccc(CN3CCCC3c3ccc4c(c3)OCCO4)cn2)cn1 (racemic) [Example 5, 5-((2-(2,3-dihydrobenzo[b] [1,4]dioxin-6-yl)pyrrolidin-1-yl)methyl)-2-(1-methyl-1H-pyrazol-4-yl)pyridine]	6.70 to 7.30
CS(=O)(=O)c1ccc(CN2CCCC2c2ccc3c(c2)OCCO3)cc1 (racemic) [Example 8, 2-(2,3-dihydrobenzo[b] [1,4]dioxin-6-yl)-1-(4-(methylsulfonyl)benzyl) pyrrolidine]	6.00 to 6.70
c1ccc(-c2ccc(CN3CCCC3c3ccc4c(c3)OCCO4)cc2)cc1 (racemic) [Example 9, 1-([1,1′-biphenyl]-4-ylmethyl)-2-(2,3-dihydrobenzo[b] [1,4]dioxin-6-yl)pyrrolidine]	6.00 to 6.70
CS(=O)(=O)c1ccc(CN2CCCC2c2ccc3c(c2)OCC3)cc1 (racemic) [Example 10, 2-(2,3-dihydrobenzofuran-6-yl)-1-(4-(methylsulfonyl)benzyl)pyrrolidine]	6.00 to 6.70
Cn1cc(-c2ccc(CN3CCCC3c3ccc4c(c3)OCC4)cc2)cn1 (racemic) [Example 11, 4-(4-((2-(2,3-dihydrobenzofuran-6-yl)pyrrolidin-1-yl)methyl)phenyl)-1-methyl-1H-pyrazole]	> 7.30
Cn1cc(-c2ccc(CN3CCCC3c3ccc4c(c3)OCC4)cn2)cn1 (racemic) [Example 12, 5-((2-(2,3-dihydrobenzofuran-6-yl)pyrrolidin-1-yl)methyl)-2-(1-methyl-1H-pyrazol-4-yl)pyridine]	6.70 to 7.30
CS(=O)(=O)c1ccc(-c2ccc(CN3CCCC3c3ccc4c(c3)OCCO4)nc2)cc1 (racemic) [Example 14, 2-((2-(2,3-dihydrobenzo[b] [1,4]dioxin-6-yl)pyrrolidin-1-yl)methyl)-5-(4-(methylsulfonyl)phenyl)pyridine]	6.00 to 6.70
c1cnn(-c2ccc(CN3CCCC3c3ccc4c(c3)OCCO4)cc2)c1 (racemic) [Example 16, 1-(4-((2-(2,3-dihydrobenzo[b] [1,4]dioxin-6-yl)pyrrolidin-1-yl)methyl)phenyl)-1H-pyrazole]	6.70 to 7.30
c1cnc2ccc(CN3CCCC3c3ccc4c(c3)OCCO4)cc2c1 (racemic) [Example 19, 6-((2-(2,3-dihydrobenzo[b] [1,4]dioxin-6-yl)pyrrolidin-1-yl)methyl)quinoline]	6.00 to 6.70
Cn1ncc2cc(CN3CCCC3c3ccc4c(c3)OCCO4)ccc21 (racemic) [Example 20, 5-((2-(2,3-dihydrobenzo[b] [1,4]dioxin-6-yl)pyrrolidin-1-yl)methyl)-1-methyl-1H-indazole]	6.00 to 6.70
Cn1cc(-c2cccc(CN3CCCC3c3ccc4c(c3)OCCO4)c2)cn1 (racemic) [Example 21, 4-(3-((2-(2,3-dihydrobenzo[b] [1,4]dioxin-6-yl)pyrrolidin-1-yl)methyl)phenyl)-1-methyl-1H-Pyrazole]	6.00 to 6.70
c1ccc(-c2ccc(CN3CCCC3c3ccc4c(c3)OCC4)cc2)cc1 (racemic) [Example 22, 1-([1,1′-biphenyl]-4-ylmethyl)-2-(2,3-dihydrobenzofuran-6-yl)pyrrolidine]	6.00 to 6.70
c1cc(N2CCOCC2)ccc1CN1CCCC1c1ccc2c(c1)OCCO2 (racemic) [Example 23, 4-(4-((2-(2,3-dihydrobenzo[b] [1,4]dioxin-6-yl)pyrrolidin-1-yl)methyl)phenyl)morpholine]	6.00 to 6.70
c1cc(N2CCOCC2)ccc1CN1CCCC1c1ccc2c(c1)OCC2 (racemic) [Example 24, 4-(4-((2-(2,3-dihydrobenzofuran-6-yl)pyrrolidin-1-yl)methyl)phenyl)morpholine]	6.00 to 6.70
c1ccc2ncc(CN3CCCC3c3ccc4c(c3)OCCO4)cc2c1 (racemic) [Example 26, 3-((2-(2,3-dihydrobenzo[b] [1,4]dioxin-6-yl)pyrrolidin-1-yl)methyl)quinoline]	6.00 to 6.70

The remaining lines, values ahead:

pIC50	Structure (SMILES)
6.00 to 6.70	c1cc(N2CCSCC2)ccc1CN1CCCC1c1ccc2c(c1)OCCO2 (racemic) [Example 28, 4-(4-((2-(2,3-dihydrobenzo[b] [1,4]dioxin-6-yl)pyrrolidin-1-yl)methyl) Phenyl) thiomorpholine]
6.00 to 6.70	c1ccc(-c2ccc(CN3CCCC3c3ccc4c(c3)OCCO4)cc2)nc1 (racemic) [Example 29, 2-(4-((2-(2,3-dihydrobenzo[b] [1,4]dioxin-6-yl)pyrrolidin-1-yl)methyl)phenyl)pyridine]
6.70 to 7.30	c1cncc(-c2ccc(CN3CCCC3c3ccc4c(c3)OCCO4)cc2)c1 (racemic) [Example 30, 3-(4-((2-(2,3-dihydrobenzo[b] [1,4]dioxin-6-yl)pyrrolidin-1-yl)methyl)phenyl) pyridine]
6.00 to 6.70	Clc1cc(-c2cccnc2)ccc1CN1CCCC1c1ccc2c(c1)OCCO2 (racemic) [Example 31, 3-(3-chloro-4-((2-(2,3-dihydrobenzo[b] [1,4]dioxin-6-yl)pyrrolidin-1-yl)methyl)phenyl)pyridine]
6.70 to 7.30	Fc1cc(-c2cccnc2)ccc1CN1CCCC1c1ccc2c(c1)OCCO2 (racemic) [Example 32, 3-(4-((2-(2,3-dihydrobenzo[b] [1,4]dioxin-6-yl)pyrrolidin-1-yl)methyl)-3-fluorophenyl)pyridine]
6.70 to 7.30	c1ncn(-c2ccc(CN3CCCC3c3ccc4c(c3)OCCO4)cc2)n1 (racemic) [Example 34, 1-(4-((2-(2,3-dihydrobenzo[b] [1,4]dioxin-6-yl)pyrrolidin-1-yl)methyl)phenyl)-1H-1,2,4-triazole]
6.00 to 6.70	c1cnc(N2CCC(CN3CCCC3c3ccc4c(c3)OCCO4)CC2)nc1 (racemic) [Example 35, 2-(4-((2-(2,3-dihydrobenzo[b] [1,4]dioxin-6-yl)pyrrolidin-1-yl)methyl)piperidin-1-yl)pyrimidine]
6.00 to 6.70	CS(=O)(=O)N1CCN(c2ccc(CN3CCCC3c3ccc4c(c3)OCCO4)cc2)CC1 (racemic) [Example 36, 1-(4-((2-(2,3-dihydrobenzo[b] [1,4]dioxin-6-yl)pyrrolidin-1-yl)methyl)phenyl)-4-(methylsulfonyl)piperazine]
6.00 to 6.70	CC(=O)N1CCN(c2ccc(CN3CCCC3c3ccc4c(c3)OCCO4)cc2)CC1 (racemic) [Example 37, 1-(4-(4-((2-(2,3-dihydrobenzo[b] [1,4]dioxin-6-yl)pyrrolidin-1-yl)methyl)phenyl)piperazin-1-yl)ethan-1-one]
6.70 to 7.30	Cc1cc(-c2cccnc2)ccc1CN1CCCC1c1ccc2c(c1)OCCO2 (racemic) [Example 38, 3-(4-((2-(2,3-dihydrobenzo[b] [1,4]dioxin-6-yl)pyrrolidin-1-yl)methyl)-3-methylphenyl)pyridine]
6.70 to 7.30	c1ncc(-c2ccc(CN3CCCC3c3ccc4c(c3)OCCO4)cc2)cn1 (racemic) [Example 39, 5-(4-((2-(2,3-dihydrobenzo[b] [1,4]dioxin-6-yl)pyrrolidin-1-yl)methyl)phenyl)pyrimidine]
6.00 to 6.70	Fc1cc(-c2ccccn2)ccc1CN1CCCC1c1ccc2c(c1)OCCO2 (racemic) [Example 41, 2-(4-((2-(2,3-dihydrobenzo[b] [1,4]dioxin-6-yl)pyrrolidin-1-yl)methyl)-3-fluorophenyl)pyridine]
